Laboratory results from paper PMC3755991, “Crystal Structure and Substrate Specificity of D-Galactose-6-Phosphate Isomerase Complexed with Substrates” (PLoS ONE, 2013).
One block for each compound: values may come before it.

How the values were obtained:
[1] = target: T1, LacAB (D-galactose-6-phosphate isomerase) (Lacticaseibacillus rhamnosus, UniProt A0A7S7FMU0+A0ABF7SXF6); experiment: conversion to D-psicose in soaked crystal; format: binding; settings: 40 mM soak for 2 hr; D-psicose seen in the electron density
T1 construct: gene LRHM_0645; full-length LacA (142 residues) and LacB (172 residues) co-expressed in E. coli BL21(DE3), pQE-80L, N-terminal His6

[2] = target: T1, LacAB (D-galactose-6-phosphate isomerase); experiment: X-ray crystal structure, soaking; format: binding; settings: converted in the crystal, active site
[3] = target: D-galactose-6-phosphate isomerase LacAB from Lactobacillus rhamnosus (heterodimer of LacA and LacB) (Lactobacillus rhamnosus); experiment: SEC-MALS; purified LacAB on Superdex 200 10/300 GL, 50 mM Tris-HCl pH 7.5, 200 mM NaCl, 1 mL/min

Compound: OC[C@H]1OC(O)[C@H](O)[C@H](O)[C@@H]1O (stereo partly drawn) [D-allose]
conversion to D-psicose in soaked crystal [1]: D-allose and D-ribose revealed that the substrates are converted to D-psicose and D-ribulose, respectively

X-ray crystal structure, soaking ([2]; crystal soaked in 45 mM D-ribose for 2 hr): 4LFN for its complex with D-ribulose
Compound: O=C(CO)[C@H](O)[C@H](O)CO [D-ribulose]

stoichiometry N [3]: 4
Compound: D-galactose-6-phosphate isomerase LacAB from Lactobacillus rhamnosus (heterodimer of LacA and LacB) (from UniProt A0ABF7SXF6 1-172) (complex)

X-ray crystal structure, soaking ([2]; crystal soaked in 40 mM D-allose for 2 hr): 4LFM for its complex with D-psicose
Compound: OCC1(O)OC[C@@H](O)[C@@H](O)[C@H]1O (stereo partly drawn) [D-psicose]
